Test results: publication PMC7954794, “Protein context shapes the specificity of SH3 domain-mediated interactions in vivo” (Nature Communications, 2021)

System: Abp1 PPIs
Assay: DHFR-PCA of Abp1 SH3-swapped baits (Fig. 2B-D, S2C, S2F);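 on Protein-protein interaction distance between Abp1 SH3-swapped baits, to ABP1: Euclidean distance between DHFR-PCA score profiles of the baits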;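 on Protein-protein interaction distance between Abp1 SH3-swapped baits, to BEM1-2: Euclidean distance between DHFR-PCA score profiles of the baits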;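 on Protein-protein interaction distance between Abp1 SH3-swapped baits, to BOI1: Euclidean distance between DHFR-PCA score profiles of the baits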;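 on Protein-protein interaction distance between Abp1 SH3-swapped baits, to BZZ1-1: Euclidean distance between DHFR-PCA score profiles of the baits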
Type: cell-based, Saccharomyces cerevisiae
Conditions: for Protein-protein interaction distance between Abp1 SH3-swapped baits, to ABP1: Abp1 bait with swapped SH3, distance to bait with ABP1 SH3; for Protein-protein interaction distance between Abp1 SH3-swapped baits, to ABP1 / Protein-protein interaction distance between Abp1 SH3-swapped baits, to BBC1 / Protein-protein interaction distance between Abp1 SH3-swapped baits, to BEM1-1 / Protein-protein interaction distance between Abp1 SH3-swapped baits, to BEM1-2 / Protein-protein interaction distance between Abp1 SH3-swapped baits, to BOI1 / Protein-protein interaction distance between Abp1 SH3-swapped baits, to BOI2 / Protein-protein interaction distance between Abp1 SH3-swapped baits, to BUD14 / Protein-protein interaction distance between Abp1 SH3-swapped baits, to BZZ1-1 / Protein-protein interaction distance between Abp1 SH3-swapped baits, to BZZ1-2 / Protein-protein interaction distance between Abp1 SH3-swapped baits, to CDC25 / Protein-protein interaction distance between Abp1 SH3-swapped baits, to CTTN / Protein-protein interaction distance between Abp1 SH3-swapped baits, to CYK3 / Protein-protein interaction distance between Abp1 SH3-swapped baits, to DBNL / Protein-protein interaction distance between Abp1 SH3-swapped baits, to FUS1 / Protein-protein interaction distance between Abp1 SH3-swapped baits, to HCLS1 / Protein-protein interaction distance between Abp1 SH3-swapped baits, to HOF1 / Protein-protein interaction distance between Abp1 SH3-swapped baits, to HSE1 / Protein-protein interaction distance between Abp1 SH3-swapped baits, to LSB1 / Protein-protein interaction distance between Abp1 SH3-swapped baits, to LSB3 / Protein-protein interaction distance between Abp1 SH3-swapped baits, to MYO3 / Protein-protein interaction distance between Abp1 SH3-swapped baits, to MYO5 / Protein-protein interaction distance between Abp1 SH3-swapped baits, to NBP2 / Protein-protein interaction distance between Abp1 SH3-swapped baits, to PEX13 / Protein-protein interaction distance between Abp1 SH3-swapped baits, to PIN3 / Protein-protein interaction distance between Abp1 SH3-swapped baits, to RVS167 / Protein-protein interaction distance between Abp1 SH3-swapped baits, to SDC25 / Protein-protein interaction distance between Abp1 SH3-swapped baits, to SHO1 / Protein-protein interaction distance between Abp1 SH3-swapped baits, to SLA1-1 / Protein-protein interaction distance between Abp1 SH3-swapped baits, to SLA1-2 / Protein-protein interaction distance between Abp1 SH3-swapped baits, to SLA1-3 / Protein-protein interaction distance between Abp1 SH3-swapped baits, to YSC84: sheet Fig2C; for Protein-protein interaction distance between Abp1 SH3-swapped baits, to BBC1: distance to Abp1 bait with BBC1 SH3; for Protein-protein interaction distance between Abp1 SH3-swapped baits, to BEM1-1: distance to Abp1 bait with BEM1-1 SH3; for Protein-protein interaction distance between Abp1 SH3-swapped baits, to BEM1-2: distance to Abp1 bait with BEM1-2 SH3; for Protein-protein interaction distance between Abp1 SH3-swapped baits, to BOI1: distance to Abp1 bait with BOI1 SH3; for Protein-protein interaction distance between Abp1 SH3-swapped baits, to BOI2: distance to Abp1 bait with BOI2 SH3; for Protein-protein interaction distance between Abp1 SH3-swapped baits, to BUD14: distance to Abp1 bait with BUD14 SH3; for Protein-protein interaction distance between Abp1 SH3-swapped baits, to BZZ1-1: distance to Abp1 bait with BZZ1-1 SH3; for Protein-protein interaction distance between Abp1 SH3-swapped baits, to BZZ1-2: distance to Abp1 bait with BZZ1-2 SH3; for Protein-protein interaction distance between Abp1 SH3-swapped baits, to CDC25: distance to Abp1 bait with CDC25 SH3; for Protein-protein interaction distance between Abp1 SH3-swapped baits, to CTTN: distance to Abp1 bait with CTTN SH3; for Protein-protein interaction distance between Abp1 SH3-swapped baits, to CYK3: distance to Abp1 bait with CYK3 SH3; for Protein-protein interaction distance between Abp1 SH3-swapped baits, to DBNL: distance to Abp1 bait with DBNL SH3; for Protein-protein interaction distance between Abp1 SH3-swapped baits, to FUS1: distance to Abp1 bait with FUS1 SH3; for Protein-protein interaction distance between Abp1 SH3-swapped baits, to HCLS1: distance to Abp1 bait with HCLS1 SH3; for Protein-protein interaction distance between Abp1 SH3-swapped baits, to HOF1: distance to Abp1 bait with HOF1 SH3; for Protein-protein interaction distance between Abp1 SH3-swapped baits, to HSE1: distance to Abp1 bait with HSE1 SH3; for Protein-protein interaction distance between Abp1 SH3-swapped baits, to LSB1: distance to Abp1 bait with LSB1 SH3; for Protein-protein interaction distance between Abp1 SH3-swapped baits, to LSB3: distance to Abp1 bait with LSB3 SH3; for Protein-protein interaction distance between Abp1 SH3-swapped baits, to MYO3: distance to Abp1 bait with MYO3 SH3; for Protein-protein interaction distance between Abp1 SH3-swapped baits, to MYO5: distance to Abp1 bait with MYO5 SH3; for Protein-protein interaction distance between Abp1 SH3-swapped baits, to NBP2: distance to Abp1 bait with NBP2 SH3; for Protein-protein interaction distance between Abp1 SH3-swapped baits, to PEX13: distance to Abp1 bait with PEX13 SH3; for Protein-protein interaction distance between Abp1 SH3-swapped baits, to PIN3: distance to Abp1 bait with PIN3 SH3; for Protein-protein interaction distance between Abp1 SH3-swapped baits, to RVS167: distance to Abp1 bait with RVS167 SH3; for Protein-protein interaction distance between Abp1 SH3-swapped baits, to SDC25: distance to Abp1 bait with SDC25 SH3; for Protein-protein interaction distance between Abp1 SH3-swapped baits, to SHO1: distance to Abp1 bait with SHO1 SH3; for Protein-protein interaction distance between Abp1 SH3-swapped baits, to SLA1-1: distance to Abp1 bait with SLA1-1 SH3; for Protein-protein interaction distance between Abp1 SH3-swapped baits, to SLA1-2: distance to Abp1 bait with SLA1-2 SH3; for Protein-protein interaction distance between Abp1 SH3-swapped baits, to SLA1-3: distance to Abp1 bait with SLA1-3 SH3; for Protein-protein interaction distance between Abp1 SH3-swapped baits, to YSC84: distance to Abp1 bait with YSC84 SH3; for SH3-dependent PPIs gained by Abp1: DHFR-PCA
Description: Having determined that multiple PPIs require SH3s, we asked whether the latter establish PPI specificity independently from their host proteins by swapping domains (Fig. 2A). Using the second round of genome editing, we individually replaced Abp1 SH3 with the 27 yeast SH3s and 3 human Abp1 orthologs’ SH3s (CTTN, HCLS1, and DBNL, Fig. 2B). The reintroduction of its own SH3 (Abp1SH3 in Abp1) reconstitutes almost perfectly Abp1’s interaction profile (Kendall’s τ = 0.93, Fig. 2B). […] No homologous SH3 domain fully re-establishes the normal Abp1 PPI profile (Fig. 2B and Supplementary Fig. 2C). However, we observe a significant correlation (cophenetic correlation = 0.20, p value = 0.005, Fig. 2C) between the similarity of PPI profiles (Fig. 2B) and the sequence similarity of the SH3s. […] Nonetheless, a subset of SH3-dependent PPIs is only observed with the endogenous domain. For instance, Hua2 and App1, both well-characterized partners of Abp1[14],[18],[19], are only detected when Abp1 contains its own SH3 (WT or swapped via editing). A given SH3 may therefore not be fully replaceable with other paralogous or orthologous domains. This pattern is confirmed by cellular growth phenotypic analyses (Supplementary Fig. 2D, E). PPIs, SH3 sequence similarity, and growth profiles under stress conditions are correlated (Supplementary Fig. 2D, E). This relationship is particularly clear when analyzing growth on media supplemented with hygromycin.
The stuffing of YSC84 SH3 rendered the strain sterile and was therefore not used for this study as the assays require crosses. For genes containing two SH3s (BZZ1 and BEM1), a combination of this first stuffer with a second one ([…]) coding for a highly similar linker ([…]) was used, which allowed targeting each SH3 position independently. The two N-terminal domains of SLA1, which are separated by six nucleotides, were stuffed by a single stuffer. Cells containing pCAS were selected via the G418 resistance cassette from the plasmid on YPD plates (YPD + NAT 100 μg/ml (DHFR F[1,2] selection) + G418 200 µg/mL (Bioshop Canada)). Colonies were randomly selected and grown in YPD media without G418 to allow plasmid loss. The correct insertion of the stuffer was validated by PCR and Sanger sequencing. The SH3-swapped, -shuffled, and -mutated strains were constructed following a second CRISPR–Cas9 editing step with the same procedures. The stuffer sequences were targeted by specific gRNAs (one gRNA per stuffer) and replaced by PCR amplified specific SH3 (with 40 bp homology arms) or libraries of mutated SH3 domains for Deep Mutational Scanning (DMS) with 78 bp flanking homology regions. Validation of the SH3 domain insertions was done as we previously described except for DMS libraries (see below).
The overall DHFR-PCA pipeline is based on Tarassov et al.[43] and the procedures have also been published as a visualized protocol. The screens were performed with robotically manipulated pin tools (BM5-SC1, S&P Robotics Inc.). First, the preys were cherry-picked from 96-well plates to omnitrays in a 384 format on YPD + HPH solid media. Plates were then combined into the 1536 format on YPD + HPH. The array was constituted of 575 preys previously shown to interact physically with at least one SH3-containing protein as reported in BioGRID V3.4.16 along with 40 negative controls. The prey array comprised a border of control strains of two rows and two columns corresponding to the PPI between LSM8-DHFR F[1,2] and CDC39-DHFR F[3]. This double border was used to remove border effects. Preys are present in duplicate at a randomized position in the 1536 array (except for YAL041W which is present four times per array). Baits were crossed with two prey plates, resulting in four independent bait–prey tests for each PPI. Baits were grown in liquid YPD + NAT and then transferred on solid YPD + NAT omnitrays. They were then replicated on YPD + NAT omnitrays in 1536 array format. […]

[1] = number of PPIs, difference, Abp1 SH3-swapped with the listed SH3, Fig2D,S2F
[2] = number of PPIs, Abp1 SH3-swapped with the listed SH3, Fig2D,S2F

Row | Substance | Protein-protein interaction distance between Abp1 SH3-swapped baits, to ABP1 | Protein-protein interaction distance between Abp1 SH3-swapped baits, to BBC1 | Protein-protein interaction distance between Abp1 SH3-swapped baits, to BEM1-1 | Protein-protein interaction distance between Abp1 SH3-swapped baits, to BEM1-2 | Protein-protein interaction distance between Abp1 SH3-swapped baits, to BOI1 | Protein-protein interaction distance between Abp1 SH3-swapped baits, to BOI2 | Protein-protein interaction distance between Abp1 SH3-swapped baits, to BUD14 | Protein-protein interaction distance between Abp1 SH3-swapped baits, to BZZ1-1 | Protein-protein interaction distance between Abp1 SH3-swapped baits, to BZZ1-2 | Protein-protein interaction distance between Abp1 SH3-swapped baits, to CDC25 | Protein-protein interaction distance between Abp1 SH3-swapped baits, to CTTN | Protein-protein interaction distance between Abp1 SH3-swapped baits, to CYK3 | Protein-protein interaction distance between Abp1 SH3-swapped baits, to DBNL | Protein-protein interaction distance between Abp1 SH3-swapped baits, to FUS1 | Protein-protein interaction distance between Abp1 SH3-swapped baits, to HCLS1 | Protein-protein interaction distance between Abp1 SH3-swapped baits, to HOF1 | Protein-protein interaction distance between Abp1 SH3-swapped baits, to HSE1 | Protein-protein interaction distance between Abp1 SH3-swapped baits, to LSB1 | Protein-protein interaction distance between Abp1 SH3-swapped baits, to LSB3 | Protein-protein interaction distance between Abp1 SH3-swapped baits, to MYO3 | other results
1 | CDC25 | 26.13 | 24.45 | 16.86 | 13.04 | 21 | 19.43 | 15.51 | 25.36 | 21.74 | 0.00 | 20.74 | 5.497 | 24.44 | 14.2 | 27.89 | 10.42 | 24.19 | 30.85 | 30.47 | 29.41 | Protein-protein interaction distance between Abp1 SH3-swapped baits, to MYO5: 28.8; Protein-protein interaction distance between Abp1 SH3-swapped baits, to NBP2: 15.13; Protein-protein interaction distance between Abp1 SH3-swapped baits, to PEX13: 29.16; Protein-protein interaction distance between Abp1 SH3-swapped baits, to PIN3: 28.09; Protein-protein interaction distance between Abp1 SH3-swapped baits, to RVS167: 27.4; Protein-protein interaction distance between Abp1 SH3-swapped baits, to SDC25: 14.8; Protein-protein interaction distance between Abp1 SH3-swapped baits, to SHO1: 24.02; Protein-protein interaction distance between Abp1 SH3-swapped baits, to SLA1-1: 7.329; Protein-protein interaction distance between Abp1 SH3-swapped baits, to SLA1-2: 13.18; Protein-protein interaction distance between Abp1 SH3-swapped baits, to SLA1-3: 30.95; Protein-protein interaction distance between Abp1 SH3-swapped baits, to YSC84: 30.76; SH3-dependent PPIs - SH3-dependent PPIs gained by Abp1 [1]: 3; SH3-dependent PPIs gained by Abp1 [2]: 0
2 | RVS167 | 9.548 | 9.304 | 14.67 | 33.63 | 11.58 | 15.22 | 18.02 | 5.914 | 11.17 | 27.4 | 12.4 | 28.09 | 5.554 | 19.5 | 7.638 | 32.19 | 7.315 | 7.392 | 7.852 | 9.049 | Protein-protein interaction distance between Abp1 SH3-swapped baits, to MYO5: 7.689; Protein-protein interaction distance between Abp1 SH3-swapped baits, to NBP2: 17.22; Protein-protein interaction distance between Abp1 SH3-swapped baits, to PEX13: 4.587; Protein-protein interaction distance between Abp1 SH3-swapped baits, to PIN3: 5.294; Protein-protein interaction distance between Abp1 SH3-swapped baits, to RVS167: 0.00; Protein-protein interaction distance between Abp1 SH3-swapped baits, to SDC25: 34.37; Protein-protein interaction distance between Abp1 SH3-swapped baits, to SHO1: 6.815; Protein-protein interaction distance between Abp1 SH3-swapped baits, to SLA1-1: 30.09; Protein-protein interaction distance between Abp1 SH3-swapped baits, to SLA1-2: 19.9; Protein-protein interaction distance between Abp1 SH3-swapped baits, to SLA1-3: 7.698; Protein-protein interaction distance between Abp1 SH3-swapped baits, to YSC84: 8.283; PPIs gained by Abp1 - SH3-dependent PPIs gained by Abp1 [1]: 9; SH3-dependent PPIs - SH3-dependent PPIs gained by Abp1 [1]: 26; SH3-dependent PPIs gained by Abp1 [2]: 5
